Results taken from patent US11111237B2, “Bicyclic compound and use thereof” (SK BIOPHARMACEUTICALS CO., LTD., priority 2019, dated 2021).
pIC50: −log10 of the molar value.

Molecular target: PRMT5-MEP50 enzyme complex (Homo sapiens (Human), UniProt O14744)
Assay: PRMT5 enzyme activity in vitro assay (methylation of histone H4R3, ELISA absorbance at 450 nm)
Assay type: biochemical
Settings: SAM, histone H4 peptide, room temperature 2 hours, 8 points from 10 μM to 0.128 nM
Summary of the method: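 IC50 was derived from ELISA absorbance at 450 nm, using primary and HRP antibodies against H4R3 methylation on immobilised histone H4 peptide (residues 1-20). Compounds (10 μM to 0.128 nM, 8 points, 1:5) were incubated 2 h at room temperature with the PRMT5-MEP50 complex and SAM, diluted to 5 μg/mL and 2 μM respectively.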

PRMT5-MEP50 enzyme complex, sequence (O14744 2-637): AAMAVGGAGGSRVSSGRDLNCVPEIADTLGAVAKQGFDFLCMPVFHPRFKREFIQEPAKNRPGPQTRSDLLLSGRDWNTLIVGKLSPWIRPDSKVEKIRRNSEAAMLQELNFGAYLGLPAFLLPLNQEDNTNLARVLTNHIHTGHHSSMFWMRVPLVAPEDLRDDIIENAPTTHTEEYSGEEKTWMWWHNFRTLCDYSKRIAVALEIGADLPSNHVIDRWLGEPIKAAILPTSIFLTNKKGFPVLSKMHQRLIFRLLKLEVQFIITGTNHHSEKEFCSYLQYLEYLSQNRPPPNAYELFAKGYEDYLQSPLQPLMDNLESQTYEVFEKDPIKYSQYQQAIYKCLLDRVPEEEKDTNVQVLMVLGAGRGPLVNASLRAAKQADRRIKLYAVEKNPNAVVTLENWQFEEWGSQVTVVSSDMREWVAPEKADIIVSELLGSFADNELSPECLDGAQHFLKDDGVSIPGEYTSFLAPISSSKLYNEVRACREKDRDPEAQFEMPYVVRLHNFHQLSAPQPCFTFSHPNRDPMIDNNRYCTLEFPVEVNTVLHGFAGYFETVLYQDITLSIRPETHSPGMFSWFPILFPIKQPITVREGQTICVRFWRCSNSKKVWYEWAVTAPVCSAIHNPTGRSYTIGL
PRMT5-MEP50 enzyme complex, sequence (Q9BQA1 2-342 partner): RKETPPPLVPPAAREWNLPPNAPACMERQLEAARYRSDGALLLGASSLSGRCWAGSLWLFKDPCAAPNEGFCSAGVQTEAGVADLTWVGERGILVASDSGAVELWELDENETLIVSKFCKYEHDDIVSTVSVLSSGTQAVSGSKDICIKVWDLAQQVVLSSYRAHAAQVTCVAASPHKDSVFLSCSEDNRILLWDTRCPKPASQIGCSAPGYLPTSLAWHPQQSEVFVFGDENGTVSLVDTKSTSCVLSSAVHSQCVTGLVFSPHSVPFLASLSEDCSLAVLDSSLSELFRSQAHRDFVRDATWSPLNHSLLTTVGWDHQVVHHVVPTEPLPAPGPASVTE

SMILES	pIC50
O=C1c2c(F)cc(CN3CCOCC3)cc2OCCN1C[C@H](O)CN1CCc2ccccc2C1 [Example 108, 4-[(2R)-3-(3,4-dihydro-1H-isoquinolin-2-yl)-2-hydroxy-propyl]-6-fluoro-8-(morpholinomethyl)-2,3-dihydro-1,4-benzoxazepin-5-one]	5.00 to 6.00
CCN1CCC(Oc2ccc3c(c2)OC(C)(C)CN(C[C@H](O)CN2CCc4ccccc4C2)C3=O)CC1 [Example 110, 4-[(2R)-3-(3,4-dihydro-1H-isoquinolin-2-yl)-2-hydroxy-propyl]-8-[(1-ethyl-4-piperidyl)oxy]-2,2-dimethyl-3H-1,4-benzoxazepin-5-one]	6.00 to 7.00
CC1(C)CN(C[C@H](O)CN2CCc3ccccc3C2)C(=O)c2ccc(CN3CCOCC3)cc2O1 [Example 111, 4-[(2R)-3-(3,4-dihydro-1H-isoquinolin-2-yl)-2-hydroxy-propyl]-2,2-dimethyl-8-(morpholinomethyl)-3H-1,4-benzoxazepin-5-one]	6.00 to 7.00
CC1(C)CN(C[C@H](O)CN2CCc3ccccc3C2)C(=O)c2ccc(OCc3ccncc3)cc2O1 [Example 113, 4-[(2R)-3-(3,4-dihydro-1H-isoquinolin-2-yl)-2-hydroxy-propyl]-2,2-dimethyl-8-(4-pyridylmethoxy)-3H-1,4-benzoxazepin-5-one]	6.00 to 7.00
CN1CCN(C[C@H](O)CN2CCc3ccccc3C2)C(=O)c2ccc(CCC(F)(F)F)cc21 [Example 116, 4-[(2R)-3-(3,4-dihydro-1H-isoquinolin-2-yl)-2-hydroxy-propyl]-1-methyl-8-(3,3,3-trifluoropropyl)-2,3-dihydro-1,4-benzodiazepin-5-one]	6.00 to 7.00
CN1CCN(C[C@H](O)CN2CCc3ccccc3C2)C(=O)c2ccc(CC3CCCCC3)cc21 [Example 117, 8-(cyclohexylmethyl)-4-[(2R)-3-(3,4-dihydro-1H-isoquinolin-2-yl)-2-hydroxy-propyl]-1-methyl-2,3-dihydro-1,4-benzodiazepin-5-one]	6.00 to 7.00
CN1CCN(C[C@H](O)CN2CCc3ccccc3C2)C(=O)c2ccc(C3=CCC(C(F)(F)F)CC3)cc21 (stereo partly drawn) [Example 119, 4-[(2R)-3-(3,4-dihydro-1H-isoquinolin-2-yl)-2-hydroxy-propyl]-1-methyl-8-[4-(trifluoromethyl)cyclohexen-1-yl]-2,3-dihydro-1,4-benzodiazepin-5-one]	6.00 to 7.00
CC(=O)N1CCC(Oc2ccc3c(c2)N(C)CCN(C[C@H](O)CN2CCc4ccccc4C2)C3=O)CC1 [Example 121, 8-[(1-acetyl-4-piperidyl)oxy]-4-[(2R)-3-(3,4-dihydro-1H-isoquinolin-2-yl)-2-hydroxy-propyl]-1-methyl-2,3-dihydro-1,4-benzodiazepin-5-one]	6.00 to 7.00
CC(=O)N1CC(Oc2ccc3c(c2)N(C)CCN(C[C@H](O)CN2CCc4ccccc4C2)C3=O)C1 [Example 122, 8-(1-acetylazetidin-3-yl)oxy-4-[(2R)-3-(3,4-dihydro-1H-isoquinolin-2-yl)-2-hydroxy-propyl]-1-methyl-2,3-dihydro-1,4-benzodiazepin-5-one]	6.00 to 7.00
CC(=O)N1CC[C@@H](Oc2ccc3c(c2)N(C)CCN(C[C@H](O)CN2CCc4ccccc4C2)C3=O)C1 [Example 123, 8-[(3R)-1-acetylpyrrolidin-3-yl]oxy-4-[(2R)-3-(3,4-dihydro-1H-isoquinolin-2-yl)-2-hydroxy-propyl]-1-methyl-2,3-dihydro-1,4-benzodiazepin-5-one]	6.00 to 7.00
CC(=O)N1CC[C@H](Oc2ccc3c(c2)N(C)CCN(C[C@H](O)CN2CCc4ccccc4C2)C3=O)C1 [Example 124, 8-[(3S)-1-acetylpyrrolidin-3-yl]oxy-4-[(2R)-3-(3,4-dihydro-1H-isoquinolin-2-yl)-2-hydroxy-propyl]-1-methyl-2,3-dihydro-1,4-benzodiazepin-5-one]	6.00 to 7.00
CN1CCC(Oc2ccc3c(c2)N(C)CCN(C[C@H](O)CN2CCc4ccccc4C2)C3=O)CC1 [Example 125, 4-[(2R)-3-(3,4-dihydro-1H-isoquinolin-2-yl)-2-hydroxy-propyl]-1-methyl-8-[(1-methyl-4-piperidyl)oxy]-2,3-dihydro-1,4-benzodiazepin-5-one]	6.00 to 7.00
CCN1CCC(Oc2ccc3c(c2)N(C)CCN(C[C@H](O)CN2CCc4ccccc4C2)C3=O)CC1 [Example 126, 4-[(2R)-3-(3,4-dihydro-1H-isoquinolin-2-yl)-2-hydroxy-propyl]-8-[(1-ethyl-4-piperidyl)oxy]-1-methyl-2,3-dihydro-1,4-benzodiazepin-5-one]	6.00 to 7.00

Continued, values first:

pIC50	SMILES
6.00 to 7.00	CCN1CCOC(COc2ccc3c(c2)OCCN(C[C@H](O)CN2CCc4ccccc4C2)C3=O)C1 (stereo partly drawn) [Example 105, 4-[(2R)-3-(3,4-dihydro-1H-isoquinolin-2-yl)-2-hydroxy-propyl]-8-[(4-ethylmorpholin-2-yl)methoxy]-2,3-dihydro-1,4-benzoxazepin-5-one]
6.00 to 7.00	CN1CCC(COc2ccc3c(c2)OCCN(C[C@H](O)CN2CCc4ccccc4C2)C3=O)C1 (stereo partly drawn) [Example 106, 4-[(2R)-3-(3,4-dihydro-1H-isoquinolin-2-yl)-2-hydroxy-propyl]-8-[(1-methylpyrrolidin-3-yl)methoxy]-2,3-dihydro-1,4-benzoxazepin-5-one]
7.00 to 9.00	CN1CCCC(COc2ccc3c(c2)OCCN(C[C@H](O)CN2CCc4ccccc4C2)C3=O)C1 (stereo partly drawn) [Example 107, 4-[(2R)-3-(3,4-dihydro-1H-isoquinolin-2-yl)-2-hydroxy-propyl]-8-[(1-methyl-3-piperidyl)methoxy]-2,3-dihydro-1,4-benzoxazepin-5-one]
6.00 to 7.00	CN1CCC(Oc2cc(F)c3c(c2)OCCN(C[C@H](O)CN2CCc4ccccc4C2)C3=O)CC1 [Example 109, 4-[(2R)-3-(3,4-dihydro-1H-isoquinolin-2-yl)-2-hydroxy-propyl]-6-fluoro-8-[(1-methyl-4-piperidyl)oxy]-2,3-dihydro-1,4-benzoxazepin-5-one]
7.00 to 9.00	CC(=O)N1CC(Oc2ccc3c(c2)OC(C)(C)CN(C[C@H](O)CN2CCc4ccccc4C2)C3=O)C1 [Example 114, 8-(1-acetylazetidin-3-yl)oxy-4-[(2R)-3-(3,4-dihydro-1H-isoquinolin-2-yl)-2-hydroxy-propyl]-2,2-dimethyl-3H-1,4-benzoxazepin-5-one]
7.00 to 9.00	CN1CCN(C[C@H](O)CN2CCc3ccccc3C2)C(=O)c2ccc(CN3CCOCC3)cc21 [Example 115, 4-[(2R)-3-(3,4-dihydro-1H-isoquinolin-2-yl)-2-hydroxy-propyl]-1-methyl-8-(morpholinomethyl)-2,3-dihydro-1,4-benzodiazepin-5-one]
7.00 to 9.00	CN1CCN(C[C@H](O)CN2CCc3ccccc3C2)C(=O)c2ccc(C3=CCCCC3)cc21 [Example 118, 8-(cyclohexen-1-yl)-4-[(2R)-3-(3,4-dihydro-1H-isoquinolin-2-yl)-2-hydroxy-propyl]-1-methyl-2,3-dihydro-1,4-benzodiazepin-5-one]
7.00 to 9.00	CN1CCN(C[C@H](O)CN2CCc3ccccc3C2)C(=O)c2ccc(C3=CCN(C(=O)OC(C)(C)C)CC3)cc21 [Example 120, tert-butyl 4-[4-[(2R)-3-(3,4-dihydro-1H-isoquinolin-2-yl)-2-hydroxy-propyl]-1-methyl-5-oxo-2,3-dihydro-1,4-benzodiazepin-8-yl]-3,6-dihydro-2H-pyridine-1-carboxylate]
